Assay results published in paper PMC8161015, “Antiplatelet Activity of Coumarins: In Vitro Assays on COX-1” (Molecules, 2021).
pIC50: −log10 of the molar value.

Target: T1, COX-1 (Homo sapiens, UniProt P23219)
T1 construct: gene PTGS1; pure human recombinant enzyme (h-COX-1)
Test: colorimetric TMPD oxidation assay with purified human COX-1, arachidonic acid substrate
Assay type: biochemical

T1 sequence (P23219 24-599): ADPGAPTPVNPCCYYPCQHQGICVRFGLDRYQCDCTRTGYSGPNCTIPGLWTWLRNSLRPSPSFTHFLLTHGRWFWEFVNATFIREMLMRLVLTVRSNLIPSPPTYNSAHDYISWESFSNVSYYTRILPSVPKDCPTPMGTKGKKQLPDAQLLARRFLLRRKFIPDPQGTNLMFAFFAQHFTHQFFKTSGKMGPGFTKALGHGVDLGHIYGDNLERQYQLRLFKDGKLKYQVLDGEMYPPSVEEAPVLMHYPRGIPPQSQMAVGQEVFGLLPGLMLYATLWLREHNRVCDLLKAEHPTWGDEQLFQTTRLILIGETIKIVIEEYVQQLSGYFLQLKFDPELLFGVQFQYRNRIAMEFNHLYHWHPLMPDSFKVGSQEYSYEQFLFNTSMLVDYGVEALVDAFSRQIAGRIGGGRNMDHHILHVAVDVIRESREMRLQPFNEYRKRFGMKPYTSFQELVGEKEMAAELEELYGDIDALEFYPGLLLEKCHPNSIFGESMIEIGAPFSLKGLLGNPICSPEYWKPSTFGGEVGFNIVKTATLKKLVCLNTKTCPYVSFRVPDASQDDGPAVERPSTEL

SMILES: O=c1ccc2cc(O[C@@H]3O[C@H](CO)[C@@H](O)[C@H](O)[C@H]3O)c(O)cc2o1 [a, 7-hydroxy-6-[(2 S, 3 R, 4 S, 5 S, 6 R)-3,4,5-trihydroxy-6-(hydroxymethyl)oxane-2-yl] oxychromen-2-one]
- pIC50: 2.35
